Tested on: mice (strain 129SV)
Assay: PpLuc expression in liver lysates after i.v. injection of LNP-formulated PpLuc mRNA with or without oligonucleotide
Assay type: in vivo, mouse
Details: 24 hours post i.v. injection, 10 μg or 30 μg mRNA (either dose), compared to PpLuc mRNA without oligonucleotide (FIG. 3)
Procedure: For preparation of Lipid nanoparticles (LNP) containing both PpLuc mRNA and 2-O-methylated oligonucleotide, first the 2′-O-methylated oligonucleotide was added to PpLuc mRNA at a weight percentage of either 20% or 6.7% (see Table 3). LNP containing PpLuc mRNA either with or without admixture of 2-O-methylated oligonucleotide were prepared using cationic lipid, cholesterol, PEG-lipid and a neutral lipid. The mRNA was diluted to 1 g/L in citrate buffer, pH 4. The ethanolic lipid solution was mixed with the aqueous RNA solution at a ratio of 1:3 (vol/vol) using a Nanoassemblr (PrecisionNanoSystems). The ethanol was then removed and the buffer replaced by 10 mM HEPES, pH 7.4 comprising 9% Sucrose by dialysis. Finally, the LNP-formulated RNA was adjusted to 0.2 g/L.
For in vivo experiments, 8 weeks old female mice (around 25 g, strain 129SV) were injected with the various LNP formulations (see tables 4 and 5). 4 animals were used per group. […]
To prepare tissue lysates, first a steal bead was added to each liver. […] Plates were introduced into a plate reader (Berthold Technologies TriStar2 LB 942) and 50 μl per well of Beetle-Juice (PJK GmbH) containing luciferin as substrate for firefly luciferase was injected. Luciferase activity was quantified as relative light units (RLU). […]

5′-GAG CGmG CCA-3′ (GAGCNGCCA; 2'-O-methyl guanosine at position 5; 9mer oligonucleotide; modified_base (5)..(5) n can be any nucleotide, wherein the nucleotide is 2-O-methylated, preferably a 2-O-methylated guanosine) [Gm18, 9-mer 2′-O-methylated RNA oligonucleotide; position 5 is 2′-O-methylated guanosine (Gm); antagonist of TLR7 and 8]
expression of PpLuc in liver lysates (luciferase activity): increases the expression

Source: patent publication US20220296628A1, “RNA COMBINATIONS AND COMPOSITIONS WITH DECREASED IMMUNOSTIMULATORY PROPERTIES” (CureVac AG, priority 2019, published 2022)
